Results from a melting point compilation (Tetko et al.; mined from patent text by program, amines drawn as free bases though some values may be those of a salt).

SMILES | melting point [°C]
COc1ccccc1Cc1nc2n(c1Cc1ccccc1OC)CCS2 | 212 to 213
CCn1c(=O)[nH]c2c3cccnc3ccc21 | 258 to 259
CCCCC/C(=C\C=C\C(=O)O)c1ccc(OC)c(OC)c1 | 98 to 99.5
COc1cccc(C2SCCCS2)c1OC | 119 to 120
CCC(C)C(C(=O)NS(C)(=O)=O)c1nc(OC)cc(OC)n1 (stereo not given) | 97 to 101
COc1ccccc1NC(=O)c1ccc([N+](=O)[O-])cc1 | 146 to 147
C=CCOc1ccc2oc(C(=O)c3ccc(F)cc3)c(C)c2c1 | 80 to 82
CC(C)n1nc(-c2sc(Nc3cccnc3)nc2-c2ccccc2)ccc1=O | 226 to 228
Cc1noc(NS(=O)(=O)c2cccc3c(N(C)C)cccc23)c1Br | 87 to 89
c1ccc2c(c1)nc1n2CCCC1 | 104 to 106
CC(=O)NCc1c(C)cc(CN2CCN(c3ccc(F)cc3)CC2)cc1C | 163 to 164
O=C(N[C@H]1CC(=O)N(c2cc(Cc3n[nH]c(=O)c4ccccc34)ccc2F)C1=O)OCc1ccccc1 | 121 to 127
CC(=O)NCC1CN(c2ccc3c(c2)CC(CO)N3C=O)C(=O)O1 (stereo not given) | 132 to 136
CC1NC(=O)NN=C1c1ccc(N(C)C)cc1 (stereo not given) | 255 to 261
Clc1nnc(CN2CC3(COc4cc5c(cc43)OCO5)c3ccccc32)s1 (stereo not given) | 194 to 197
CS(=O)(=O)c1ccc(C(CC2CCCC2)C(N)=O)cc1Br (stereo not given) | 60 to 63
COC(=O)CCCc1cc2cc(Cl)ccc2n1S(=O)(=O)c1cccc(OC)c1 | 107 to 109
Cc1oc(-c2ccc(C(F)(F)F)cc2)nc1COc1cccc(C=CC(C)n2oc(=O)[nH]c2=O)c1 (stereo not given) | 104 to 105
COc1ccc(S(=O)(=O)Nc2cccnc2Nc2ccc(OC)c(OC)c2)cc1 | 126 to 127
COc1ccc2[nH]c(S(=O)Cc3ncc(C)c(N4CCOCC4)c3Cl)nc2c1 (stereo not given) | 147 to 148
COCCOc1cc(C)c(O)c2ccccc12 | 100 to 101
CCCOc1ccccc1-c1nc2cc3c(cc2c(=O)[nH]1)NCN3Cc1ccc(OC)cc1 | 130 to 131
Cc1ccc(Cl)cc1N1CN(C)CN(C)C1=S | 157 to 159
CC(C)(C)c1ccc(-c2nc(NC(=O)c3ccccc3)sc2-c2ccncc2)cc1 | 292 to 294
c1ccc2c(c1)Cn1cccc1CN2 | 145 to 148

SMILES | melting point [°C]
CC(C)(C)c1cc(C=O)c(O)c(S(=O)(=O)CCl)c1 | 128 to 129
COc1nc(N)cc2cccnc12 | 178 to 180
Cc1noc(NC(=O)N2CCN(c3ccnc(-c4ccc(F)cc4F)c3)CC2)c1C | 234 to 235
CC(CCNC(=O)c1ccc(Cl)s1)n1ccnc1 (stereo not given) | 141 to 143
CC(=C(F)F)c1cn(-c2c(Cl)cc(C(F)(F)F)cc2Cl)nc1C#N | 66 to 68
CC(C)c1nc(C(C)(C)C)cc(-c2ccc(F)cc2)c1C=CI | 78 to 80
COC(=O)C1=Cc2cc(-c3ccc(OC)cc3)ccc2S(=O)(=O)CC1 | 191 to 193
O=C(O)c1ccc(OC(F)=C(F)F)cc1 | 139 to 140
Cc1oc(-c2ccccc2)nc1COc1ccc(CCc2oc(-c3ccccc3)nc2CCC(=O)O)cc1 | 110 to 111
O=C(O)c1cn(-c2cc([N+](=O)[O-])c(F)cc2F)c2c(F)c(F)c(F)cc2c1=O | 245 to 255
CCOc1cc(OCCCc2cn(-c3ccc(C(F)(F)F)cn3)nc2O)ccc1CCC(=O)OC | 147 to 148
CCCCNC(=O)c1cc(=O)c(Oc2ccccc2)co1 | 149 to 151
CN1CCN(Cc2ccc(NC(=O)c3cccc4cc(Oc5ccnc(NC(=O)C6CC6)c5)ccc34)cc2C(F)(F)F)CC1 | 218 to 220
Cc1cc(Br)c2c(c1)C(=O)C(=O)N2CCN(C(C)C)C(C)C | 94 to 97
CCOCCn1nc(-c2cc(C(C)(C)C)c(O)c(C(C)(C)C)c2)c2cccnc21 | 86 to 88
COC1(OC)C=CC=CC1C1c2cccc(O)c2C(=O)c2c(O)cccc21 (stereo not given) | 152
Cn1c(CNCC2CCOCC2)cc2cc(NC(=O)c3ccc(OC[C@@H]4CCCO4)cc3)ccc21 | 157 to 158
COc1ccc(Nc2nc(-c3ccc(-c4ccccc4)cc3)cs2)nc1 | 212 to 213
CC1CNc2c3c(nc4cccc(c24)O1)CCCC3 (stereo not given) | 169 to 170
CC(=O)CCc1cc(F)c2ncc(C(=O)NCc3ccc(Cl)cc3)c(O)c2c1 | 218 to 222
COc1ccc(CN2C(=O)[C@@H](NC(=O)Cc3ccccc3)[C@H]2CNC(C)=O)c(OC)c1 (relative stereo) | 205 to 207
Nc1ccccc1-c1ncn[nH]1 | 145 to 148
CNC(=O)OCc1c(COC(=O)NC)c2n(c1C)-c1ccccc1C2 | 86 to 88
Cc1ccc2c3c1OC(c1ccccc1)N3C(=O)C1CCCN1C2=O (stereo not given) | 158 to 162
CCN(CC)C(=O)Oc1nc(-c2ccc(OC)cc2)cc2ccccc12 | 84
